Assay results from article PMC10254170, “Diastereoselective Synthesis of the Borylated D-Galactose Monosaccharide 3-Boronic-3-Deoxy-D-Galactose and Biological Evaluation in Glycosidase Inhibition and in Cancer for Boron Neutron Capture Therapy (BNCT)” (Molecules, 2023).
Like-named read-outs stand apart in the source and are kept apart here.

Experiments:
yeast α-glucosidase = test: Glycosidase inhibition, yeast α-glucosidase; format: biochemical; conditions: for inhibition %: in methanol
Source text: (§1) Glycosidase modulation studies need to explore selectivity as well as potency. Our drugs and controls are therefore screened against a panel of glycosidases in methanol (Table 1) to identify the glycosidase-related disease area(s), selectivity profile, and potency of biological action for each drug. The presence of organic boron covalently bonded to the drug structure also grants a reduced toxicity profile. Following the glycosidase inhibition range recommendations, an IC50 value >250 μm denotes weak inhibition, 100–249 μm denotes moderate inhibition, 10–99 μm good inhibition, 0.1–9 μm potent inhibition, and <0.1 μm very potent inhibition. […] Our boronated D-galactose 7 represents a novel lead in glycosidase inhibition.
(§2) The glycosidases screened are the following: rice α-glucosidase, yeast α-glucosidase, Bacillus α-glucosidase, rat intestinal maltase α-glucosidase, almond β-glucosidase, bovine liver β-glucosidase, coffee beans α-galactosidase, bovine liver β-galactosidase, Jack bean α-mannosidase, snail β-mannosidase, Penicillium decumbens α-L-rhamnosidase, bovine kidney α-L-fucosidase, Eschierichia coli β-glucuronidase, bovine liver β-glucuronidase, porcine kidney trehalase, Aspergillus niger amyloglucosidase, and bovine kidney N-acetyl-β-glucosaminidase. The disease areas for each glycosidase are summarized in [1].
(§3) The enzymes α-glucosidase (from yeast), β-glucosidases (from almond and bovine liver), α-galactosidase (from coffee beans), β-galactosidase (from bovine liver), α-mannosidase (from Jack bean), β-mannosidase (from snail), α-L-rhamnosidase (from Penicillium decumbens), α-L-fucosidase (from bovine kidney), trehalase (from porcine kidney), β-glucuronidases (from E. coli and bovine liver), amyloglucosidase (from A. niger), para-nitrophenyl glycosides, and various disaccharides were purchased from Sigma-Aldrich Co.
(§4) Brush border membranes were prepared from the rat small intestine according to the method of Kessler et al. and were assayed at pH 6.8 for rat intestinal maltase using maltose. For rat intestinal maltase, porcine kidney trehalase, and A. niger amyloglucosidase activities, the reaction mixture contained 25 mM maltose and the appropriate amount of enzyme, and the incubations were performed for 10–30 min at 37 °C. The reaction was stopped by heating at 100 °C for 3 min. After centrifugation (600 g; 10 min), the resulting reaction mixture was added to the Glucose CII-test Wako (Wako Pure Chemical Ind., Osaka, Japan). The absorbance at 505 nm was measured to determine the amount of the released D-glucose. Other glycosidase activities were determined using an appropriate para-nitrophenyl glycoside as substrate at the optimum pH of each enzyme. The reaction mixture contained 2 mM of the substrate and the appropriate amount of enzyme. The reaction was stopped by the addition of 400 mM Na2CO3. The released para-nitrophenol was measured spectrometrically at 400 nm. All reactions run in methanol.

[1] = tested on: rat intestinal maltase α-glucosidase; test: Glycosidase inhibition, rat intestinal maltase; format: biochemical; conditions: for inhibition %: in methanol
Source text: as §1, §2, §4

snail β-mannosidase = test: Glycosidase inhibition, snail β-mannosidase; format: biochemical; conditions: for inhibition %: in methanol
Source text: as §1, §2, §3, §4

[2] = target: T1, bovine kidney α-L-fucosidase (Bos taurus, UniProt Q2KIM0); test: Glycosidase inhibition, bovine kidney α-L-fucosidase; format: biochemical
T1 construct: purchased Sigma-Aldrich Co; host or cells: bovine kidney
T1 sequence (Q2KIM0 23-468): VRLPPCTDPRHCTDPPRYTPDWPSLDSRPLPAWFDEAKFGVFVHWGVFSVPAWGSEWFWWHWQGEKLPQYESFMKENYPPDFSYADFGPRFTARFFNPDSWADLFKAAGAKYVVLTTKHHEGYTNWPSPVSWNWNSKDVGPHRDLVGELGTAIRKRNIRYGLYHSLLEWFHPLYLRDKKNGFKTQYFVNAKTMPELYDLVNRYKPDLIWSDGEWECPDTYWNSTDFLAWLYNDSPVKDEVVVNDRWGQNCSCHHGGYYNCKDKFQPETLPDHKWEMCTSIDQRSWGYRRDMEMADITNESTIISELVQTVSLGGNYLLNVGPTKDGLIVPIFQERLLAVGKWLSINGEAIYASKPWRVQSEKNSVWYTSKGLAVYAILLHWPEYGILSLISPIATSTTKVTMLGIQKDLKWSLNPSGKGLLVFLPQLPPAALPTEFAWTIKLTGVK
Source text: as §1, §2, §3, §4

E. coli β-glucuronidase = target: T2, E. coli β-glucuronidase (Escherichia coli, UniProt P05804); test: Glycosidase inhibition, E. coli β-glucuronidase; format: biochemical
T2 construct: purchased Sigma-Aldrich Co
T2 sequence (P05804 whole entry): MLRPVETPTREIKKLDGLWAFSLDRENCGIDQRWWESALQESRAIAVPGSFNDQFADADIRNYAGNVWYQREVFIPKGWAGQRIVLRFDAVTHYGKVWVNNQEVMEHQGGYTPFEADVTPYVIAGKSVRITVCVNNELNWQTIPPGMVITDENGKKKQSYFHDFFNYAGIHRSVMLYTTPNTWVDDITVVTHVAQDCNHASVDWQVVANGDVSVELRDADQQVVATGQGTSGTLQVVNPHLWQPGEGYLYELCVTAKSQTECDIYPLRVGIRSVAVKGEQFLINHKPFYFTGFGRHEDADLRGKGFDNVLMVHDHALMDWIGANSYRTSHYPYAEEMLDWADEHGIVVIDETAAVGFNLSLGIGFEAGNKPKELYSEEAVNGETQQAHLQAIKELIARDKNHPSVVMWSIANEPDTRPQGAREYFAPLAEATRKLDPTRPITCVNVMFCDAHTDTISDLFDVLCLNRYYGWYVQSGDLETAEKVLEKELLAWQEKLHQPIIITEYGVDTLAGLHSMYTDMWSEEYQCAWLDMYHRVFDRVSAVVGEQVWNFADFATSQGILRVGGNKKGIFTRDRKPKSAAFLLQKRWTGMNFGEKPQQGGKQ
Source text: as §1, §2, §3, §4

U87 (glioblastoma) = test: Cancer screening (MTT growth inhibition), U87; format: cell-based; conditions: 72 h; for inhibition at 25 µM: 25 µM of drug, n = 3, mean ± SEM, read-out: Percentage (%) cell growth inhibition
Experimental: (§5) All test agents were prepared as stock solutions (20 mM) in dimethyl sulfoxide (DMSO) and stored at −20 °C. Cell lines used in the study included: HT29 (colorectal carcinoma), U87 and SJ-G2 (glioblastoma), MCF-7 (breast carcinoma), A2780 (ovarian carcinoma), H460 (lung carcinoma), A431 (skin carcinoma), Du145 (prostate carcinoma), BE2-C (neuroblastoma), MiaPaCa-2 (pancreatic carcinoma), SMA560 (spontaneous murine astrocytoma), and ADDP (Cis Res Ovarian), together with one non-tumor-derived normal breast cell line (MCF10A). All cell lines were incubated in a humidified atmosphere with 5 % CO2 at 37 °C. The cancer cell lines were maintained in Dulbecco’s modified Eagle’s medium (DMEM; Sigma, Australia) supplemented with fetal bovine serum (10%), sodium pyruvate (10 mM), penicillin (100 IUmL^−1), streptomycin (100 µg mL^−1), and L-glutamine (2 mM).
(§6) Growth inhibition was determined by plating cells in duplicate in medium (100 µL) at a density of 2500–4000 cells per well in 96-well plates. On day 0 (24 h after plating), when the cells are in logarithmic growth, medium (100 µL) with or without the test agent was added to each well. After 72 h of drug exposure, growth inhibitory effects were evaluated using the (3-(4,5-dimethyltiazol-2-yl)-2,5-diphenyltetrazolium bromide) (MTT) assay and absorbance read at 540 nm. The percentage growth inhibition was calculated at a fixed concentration of 25 µM, based on the difference between the optical density values on day 0 and those at the end of drug exposure. Each data point is the mean ± the standard error of the mean (SEM) calculated from three replicates, which were performed on separate occasions and in separate cell line passages.

MCF-7 (breast carcinoma) = test: Cancer screening (MTT growth inhibition), MCF-7; format: cell-based; conditions: Homo sapiens, 72 h; for inhibition at 25 µM: MCF7, 25 µM of drug, n = 3, mean ± SEM, read-out: Percentage (%) cell growth inhibition
Experimental: as §5, §6

[3] = tested on: A2780 (ovarian carcinoma); test: Cancer screening (MTT growth inhibition), A2780; format: cell-based; conditions: Homo sapiens, 72 h; for inhibition at 25 µM: A2780, 25 µM of drug, n = 3, mean ± SEM, read-out: Percentage (%) cell growth inhibition
Experimental: as §5, §6

A431 (skin carcinoma) = test: Cancer screening (MTT growth inhibition), A431; format: cell-based; conditions: Homo sapiens, 72 h; for inhibition at 25 µM: A-431, 25 µM of drug, n = 3, mean ± SEM, read-out: Percentage (%) cell growth inhibition
Experimental: as §5, §6

[4] = tested on: Du145 (prostate carcinoma); test: Cancer screening (MTT growth inhibition), Du145; format: cell-based; conditions: Homo sapiens, 72 h; for inhibition at 25 µM: DU-145, 25 µM of drug, n = 3, mean ± SEM, read-out: Percentage (%) cell growth inhibition
Experimental: as §5, §6

SJ-G2 (glioblastoma) = test: Cancer screening (MTT growth inhibition), SJ-G2; format: cell-based; conditions: 72 h; for inhibition at 25 µM: SJ-G2, 25 µM of drug, n = 3, mean ± SEM, read-out: Percentage (%) cell growth inhibition
Experimental: as §5, §6

[5] = tested on: MiaPaCa-2 (pancreatic carcinoma); test: Cancer screening (MTT growth inhibition), MIA-Pa-Ca2; format: cell-based; conditions: Homo sapiens, 72 h; for inhibition at 25 µM: MIA PaCa-2, 25 µM of drug, n = 3, mean ± SEM, read-out: Percentage (%) cell growth inhibition
Experimental: as §5, §6

[6] = in methanol, read-out: inhibition %

OCC1OC(O)C(O)C(B(O)O)C1O [Compound 7, 3-Boronic-3-Deoxy-D-galactose]
NI: No inhibition (yeast α-glucosidase; at 1000 μM): NI (No inhibition (less than 50% inhibition at 1000 μM)) | inhibition % (yeast α-glucosidase; at 1000 μM): 12.1% | NI: No inhibition ([1]; at 1000 μM): NI (No inhibition (less than 50% inhibition at 1000 μM)) | inhibition % ([1]; at 1000 μM): 18.3% | NI: No inhibition (snail β-mannosidase; at 1000 μM): NI (No inhibition (less than 50% inhibition at 1000 μM)) | inhibition % (snail β-mannosidase; at 1000 μM): 0% | inhibition at 1000 µM [2, 6]: 1.3% | inhibition at 1000 µM ([2]; read-out: NI: No inhibition): < 50% | inhibition at 1000 µM (E. coli β-glucuronidase; [6]): 3.7% | inhibition at 1000 µM (E. coli β-glucuronidase; read-out: NI: No inhibition): < 50% | inhibition at 25 µM (U87 (glioblastoma)): -6 ± 3% | GI50 (U87 (glioblastoma); dose response, read-out: GI50 = Concentration that inhibits cell growth by 50%): > 50 µM | inhibition at 25 µM (MCF-7 (breast carcinoma)): 2 ± 2% | GI50 (MCF-7 (breast carcinoma); MCF7, dose response, read-out: GI50 = Concentration that inhibits cell growth by 50%): > 50 µM | inhibition at 25 µM [3]: 8 ± 3% | GI50 ([3]; A2780, dose response, read-out: GI50 = Concentration that inhibits cell growth by 50%): > 50 µM | inhibition at 25 µM (A431 (skin carcinoma)): 3% | GI50 (A431 (skin carcinoma); A-431, dose response, read-out: GI50 = Concentration that inhibits cell growth by 50%): > 50 µM | inhibition at 25 µM [4]: 7 ± 4% | GI50 ([4]; DU-145, dose response, read-out: GI50 = Concentration that inhibits cell growth by 50%): > 50 µM | inhibition at 25 µM (SJ-G2 (glioblastoma)): 7 ± 4% | GI50 (SJ-G2 (glioblastoma); SJ-G2, dose response, read-out: GI50 = Concentration that inhibits cell growth by 50%): > 50 µM | inhibition at 25 µM [5]: 1 ± 2% | GI50 ([5]; MIA PaCa-2, dose response, read-out: GI50 = Concentration that inhibits cell growth by 50%): > 50 µM

CC1(C)OCC(C2OC3OC(C)(C)OC3C2[B-]23OCC[NH+]2CCO3)O1 [Compound 6, 3-Deoxy-3-Boronodiethanolamine-1,2:5,6-Di-O-isopropylidene-α-D-galactofuranose]
NI: No inhibition (yeast α-glucosidase; at 100 μM): NI (No inhibition (less than 50% inhibition at 100 μM)) | inhibition % (yeast α-glucosidase; at 100 μM): 0% | NI: No inhibition ([1]; at 100 μM): NI (No inhibition (less than 50% inhibition at 100 μM)) | inhibition % ([1]; at 100 μM): 3.1% | NI: No inhibition (snail β-mannosidase; at 100 μM): NI (No inhibition (less than 50% inhibition at 100 μM)) | inhibition % (snail β-mannosidase; at 100 μM): 0% | inhibition at 100 µM [2, 6]: 6.5% | inhibition at 100 µM ([2]; read-out: NI: No inhibition): < 50% | inhibition at 100 µM (E. coli β-glucuronidase; [6]): 3.5% | inhibition at 100 µM (E. coli β-glucuronidase; read-out: NI: No inhibition): < 50% | inhibition at 25 µM (U87 (glioblastoma)): 8 ± 4% | inhibition at 25 µM (MCF-7 (breast carcinoma)): 14 ± 5% | inhibition at 25 µM [3]: 10 ± 5% | inhibition at 25 µM (A431 (skin carcinoma)): 0% | inhibition at 25 µM [4]: 0% | inhibition at 25 µM (SJ-G2 (glioblastoma)): < 0% | inhibition at 25 µM [5]: 3 ± 1%
